This series relates to healthy rats. Conditions: rat, in vivo.

Experimental: Male rats of the breed Sprague Dawley from Charles River were used at the beginning of the experiment with weight of 200 g (n=8) per group listed below. […] Then for another 4 weeks (week 2-5), the feed mentioned above ad libitum with active substance additive. On the last day of each experiment week, the animals were kept individually in a metabolic cage for 24 hours (day 6 to day 7). Feces and urine were collected. Blood was obtained only on the last collection day. Blood and urine samples were examined by Synlab GmbH.
The groups received as follows from week 2-5 additives per 100 g feed Group A control—no additives
Group B adjuvants—addition of 0.2 g of mannitol and each 0.9 g of inulin and gum arabic
Group D Velphoro®—based on iron as an additive to the feed 250 mg of iron
Group E Fosrenol®—based on lanthanum as an additive to the feed 250 mg lanthanum
Group F Renvela®—based on Sevelamer carbonate 500 mg

As to sucroferric oxyhydroxide [Velphoro®], the “Feces excretion 24 hours Weight” value is 17.1 ± 6.2 g and the “Urine volumes 24 hours” value was found to be 16.1 ± 3.6 mL.

Values taken from patent US10632149B2, “Drug based on maghemite for simultaneous reduction of gastrointestinal sodium resorption and phosphate resorption” (CHARITÉ-UNIVERSITAETSMEDIZIN BERLIN, priority 2014, dated 2020).
